Test results published in patent US20120035144A1 (APEX LABORATORIES PRIVATE LIMITED, priority 2009, published 2012).
Where a name gives a salt, the structure may show the parent alone.

Key:
[1] = cited from earlier work
[2] = Stability of raw API, stability indicating HPLC method; type: physicochemical; conditions: Sodium Fusidate compared with Fusidic acid, Tables 1 and 2
Text: In both studies the * Initial denotes the results of the samples tested at the time of receipt of the API from the supplier.

Structure (SMILES)	Protein binding [1]	stability as an API [2]
Clc1ccccc1C(c1ccccc1)(c1ccccc1)n1ccnc1 [Clotrimazole, 1-(o-Chloro-α,α-diphenylbenzyl)imidazole]	about 90%	–
CC(=O)O[C@H]1C[C@@]2(C)[C@@H](C[C@@H](O)[C@H]3[C@@]4(C)CC[C@@H](O)[C@@H](C)[C@@H]4CC[C@@]32C)/C1=C(\CCC=C(C)C)C(=O)O [Sodium Fusidate, 3μ,11μ,16β-Trihydroxy 29-nor-8μ,9β,13μ,14β-dammara-17(20)[10,21-cis], 24-dien-21-oic acid 16-acetate, sodium salt]	–	more stable than Fusidic acid
